The target in one data set is T1, human Kv72+3 channels (Homo sapiens, UniProt O43525+O43526).
T1 construct: expressed in transfected cells
Nature of the data set: patch-clamp, HEK293 cell lines stably expressing the human Kv72+3 channels. To be noted: 3 μM, HEK293 cells stably expressing human Kv72+3 channels. Format: cell-based. A general note: The patch-clamp technique gives a direct electrical read-out from membranes.

The structures appear in SMILES notation.

Consider `CCc1nc2cc(F)ccc2c(=O)n1NC(=O)C(C)c1ccccc1` (centres unmarked) [Compound A1, N-(2-Ethyl-7-fluoro-4-oxo-4H-quinazolin-3-yl)-2-phenyl-propionamide], for which the melting point lay in the range of 57 to 63 °C.

Regarding `CC(C)c1nc2ccccc2c(=O)n1NC(=O)C(C)c1ccccc1` (centres unmarked) [Compound B1, N-(2-Isopropyl-4-oxo-4H-quinazolin-3-yl)-2-phenyl-propionamide], the melting point lay in the range of 48 to 55 °C. `CC(C)c1nc2ccccc2c(=O)n1NC(=O)C(C)c1cccc(F)c1` (centres unmarked) [Compound B16, 2-(3-Fluoro-phenyl)-N-(2-isopropyl-4-oxo-4H-quinazolin-3-yl)-propionamide]: at human Kv72+3 channels, the “activation compared to control” value is given as 60%. On to `COc1ccc(C(C)C(=O)Nn2c(C(C)C)nc3cc(C(F)(F)F)ccc3c2=O)cc1` (centres unmarked) [Compound B20, N-(2-Isopropyl-4-oxo-7-trifluoromethyl-4H-quinazolin-3-yl)-2-(4-methoxy-phenyl)-propionamide], for which the “activation compared to control” value on human Kv72+3 channels was determined as 87%.

Compound `CC(C)c1nc2ccccc2c(=O)n1NC(=O)C(c1ccccc1)C(C)C` (centres unmarked) [Compound B2, N-(2-Isopropyl-4-oxo-4H-quinazolin-3-yl)-3-methyl-2-phenyl-butyramide] yielded a melting point of 188 to 193 °C.

The term melting point denotes the temperature of the solid-liquid transition.
